Read-outs that look alike come from different tables or passages of the source.
Key:
[1] = test system: peripheral blood mononuclear cells from HIV-1 seronegative individuals; conditions: for IFN-γ spots/10^6 PBMC, Average (AV): average of 8 seronegative individuals; for IFN-γ spots/10^6 PBMC, Average (AV) / IFN-γ spots/10^6 PBMC: peptide 5 μM; for IFN-γ spots/10^6 PBMC, AV + 3SD: average plus 3 standard deviations, 8 seronegative individuals
Procedure: (§1) Step d) is achieved by synthesizing the peptides representing the epitopes of the present invention, followed by ELISPOT assay to detect IFN-γ-producing cells. For the purposes of the present invention, the positivity cutoff value used is ≧30 SFC IFN-γ/10^6 PBMC, calculated based on the levels of responses of HIV-1 seronegative patients
(§2) Synthetic peptide stocks were diluted to 25 mg/mL in dimethylsulphoxide, followed by ELISPOT assays for detection of IFN-γ-producing cells in response to the epitopes using peripheral blood mononuclear cells (PBMC) in 34 HIV-1+ patients of several clinical groups, long-term nonprogressors (LTNP), reconsituted, partial controllers, and progressors. Each epitope was tested in a concentration of 5 μM. The cryopreserved cells were maintained in culture for 16 hours, placed on plates in the presence of the epitopes, incubated for a further 18 hours, washed and ELISPOT plates were developed for the identification of spot-forming cells/Interferon-γ-producing cells (IFN-γ SFC), which were then counted in an automated counter (Zeiss KS ELISpot/Axioplan 2).

[2] = test system: peripheral blood mononuclear cells (PBMC) in 34 HIV-1+ patients; conditions: 5 μM, positive ≧30 SFC IFN-γ/10^6 PBMC
Procedure: as §1, §2

| Sequence | IFN-γ spots/10^6 PBMC, Average (AV) [1] | IFN-γ spots/10^6 PBMC, AV + 3SD [1] | IFN-γ spots/10^6 PBMC ([1]; seronegative individual C#01) | IFN-γ spots/10^6 PBMC ([1]; seronegative individual C#02) | IFN-γ spots/10^6 PBMC ([1]; seronegative individual C#03) | IFN-γ spots/10^6 PBMC ([1]; seronegative individual C#04) | IFN-γ spots/10^6 PBMC ([1]; seronegative individual C#05) | IFN-γ spots/10^6 PBMC ([1]; seronegative individual C#06) | IFN-γ spots/10^6 PBMC ([1]; seronegative individual C#07) | IFN-γ spots/10^6 PBMC ([1]; seronegative individual C#08) | percentage of HIV-1+ patients recognizing the individual peptide [2] |
| --- | --- | --- | --- | --- | --- | --- | --- | --- | --- | --- | --- |
| ALFYKLDVVPID [env 3] | 1.5 spots/10^6 PBMC | 10 spots/10^6 PBMC | 5 spots/10^6 PBMC | 0 spots/10^6 PBMC | 0 spots/10^6 PBMC | 7 spots/10^6 PBMC | 0 spots/10^6 PBMC | 0 spots/10^6 PBMC | 0 spots/10^6 PBMC | 0 spots/10^6 PBMC |  |
| DKELYPLASLRSLFG [gag 4] | 3.7 spots/10^6 PBMC | 17.4 spots/10^6 PBMC | 0 spots/10^6 PBMC | 0 spots/10^6 PBMC | 5 spots/10^6 PBMC | 12 spots/10^6 PBMC | 8 spots/10^6 PBMC | 0 spots/10^6 PBMC | 0 spots/10^6 PBMC | 5 spots/10^6 PBMC |  |
| EAIIRILQQLLFIHF [vpr 2] | 4.6 spots/10^6 PBMC | 24.2 spots/10^6 PBMC | 0 spots/10^6 PBMC | 12 spots/10^6 PBMC | 15 spots/10^6 PBMC | 0 spots/10^6 PBMC | 0 spots/10^6 PBMC | 0 spots/10^6 PBMC | 0 spots/10^6 PBMC | 10 spots/10^6 PBMC |  |
| EELRSLYNTVATLYCVH [gag 1] | 1.7 spots/10^6 PBMC | 10.0 spots/10^6 PBMC | 0 spots/10^6 PBMC | 7 spots/10^6 PBMC | 0 spots/10^6 PBMC | 2 spots/10^6 PBMC | 0 spots/10^6 PBMC | 0 spots/10^6 PBMC | 0 spots/10^6 PBMC | 5 spots/10^6 PBMC |  |
| ELLKTVRLIKFLYQSNP [rev 1] | 3 spots/10^6 PBMC | 12.9 spots/10^6 PBMC | 5 spots/10^6 PBMC | 7 spots/10^6 PBMC | 5 spots/10^6 PBMC | 7 spots/10^6 PBMC | 0 spots/10^6 PBMC | 0 spots/10^6 PBMC | 0 spots/10^6 PBMC | 0 spots/10^6 PBMC |  |
| GKIILVAVHVASGYI [pol 3] | 0.2 spots/10^6 PBMC | 2.4 spots/10^6 PBMC | 0 spots/10^6 PBMC | 2 spots/10^6 PBMC | 0 spots/10^6 PBMC | 0 spots/10^6 PBMC | 0 spots/10^6 PBMC | 0 spots/10^6 PBMC | 0 spots/10^6 PBMC | 0 spots/10^6 PBMC |  |
| KRWIILGLNKIVRMYSPTSI [gag 3] | 3.6 spots/10^6 PBMC | 20 spots/10^6 PBMC | 0 spots/10^6 PBMC | 12 spots/10^6 PBMC | 5 spots/10^6 PBMC | 12 spots/10^6 PBMC | 0 spots/10^6 PBMC | 0 spots/10^6 PBMC | 0 spots/10^6 PBMC | 0 spots/10^6 PBMC |  |
| NTSYRLISCNTSVI [env 4] | 5.2 spots/10^6 PBMC | 24.6 spots/10^6 PBMC | 0 spots/10^6 PBMC | 7 spots/10^6 PBMC | 15 spots/10^6 PBMC | 2 spots/10^6 PBMC | 3 spots/10^6 PBMC | 0 spots/10^6 PBMC | 0 spots/10^6 PBMC | 15 spots/10^6 PBMC |  |
| QQLLFIHFRIGCRHSRIG [vpr 3] | 1.9 spots/10^6 PBMC | 12.3 spots/10^6 PBMC | 0 spots/10^6 PBMC | 8 spots/10^6 PBMC | 7 spots/10^6 PBMC | 0 spots/10^6 PBMC | 0 spots/10^6 PBMC | 0 spots/10^6 PBMC | 0 spots/10^6 PBMC | 0 spots/10^6 PBMC |  |
| QRPLVTIKIGGQLKE [pol 1] | 5.1 spots/10^6 PBMC | 26.9 spots/10^6 PBMC | 0 spots/10^6 PBMC | 0 spots/10^6 PBMC | 20 spots/10^6 PBMC | 12 spots/10^6 PBMC | 3 spots/10^6 PBMC | 0 spots/10^6 PBMC | 1 spots/10^6 PBMC | 5 spots/10^6 PBMC | 44% |
| SELYLYKVVKIEPLGVAP [env 5] | 0.6 spots/10^6 PBMC | 5.9 spots/10^6 PBMC | 0 spots/10^6 PBMC | 0 spots/10^6 PBMC | 5 spots/10^6 PBMC | 0 spots/10^6 PBMC | 0 spots/10^6 PBMC | 0 spots/10^6 PBMC | 0 spots/10^6 PBMC | 0 spots/10^6 PBMC |  |
| SLQYLALVALVAPKK [vif 2] | 3.1 spots/10^6 PBMC | 19.7 spots/10^6 PBMC | 0 spots/10^6 PBMC | 8 spots/10^6 PBMC | 2 spots/10^6 PBMC | 0 spots/10^6 PBMC | 0 spots/10^6 PBMC | 0 spots/10^6 PBMC | 0 spots/10^6 PBMC | 15 spots/10^6 PBMC |  |
| SPEVIPMFSALSE [gag 2] | 0.9 spots/10^6 PBMC | 6.3 spots/10^6 PBMC | 0 spots/10^6 PBMC | 2 spots/10^6 PBMC | 0 spots/10^6 PBMC | 0 spots/10^6 PBMC | 0 spots/10^6 PBMC | 0 spots/10^6 PBMC | 0 spots/10^6 PBMC | 5 spots/10^6 PBMC |  |
| TMLLGMLMICSAA [env 2] | 3.4 spots/10^6 PBMC | 19.7 spots/10^6 PBMC | 0 spots/10^6 PBMC | 7 spots/10^6 PBMC | 5 spots/10^6 PBMC | 0 spots/10^6 PBMC | 0 spots/10^6 PBMC | 0 spots/10^6 PBMC | 0 spots/10^6 PBMC | 15 spots/10^6 PBMC |  |
| VLAIVALVVATIIAI [vpu 1] | 3.7 spots/10^6 PBMC | 16.2 spots/10^6 PBMC | 0 spots/10^6 PBMC | 0 spots/10^6 PBMC | 7 spots/10^6 PBMC | 7 spots/10^6 PBMC | 0 spots/10^6 PBMC | 0 spots/10^6 PBMC | 6 spots/10^6 PBMC | 10 spots/10^6 PBMC |  |
| VLEWRFDSRLAFHHV [nef 1] | 4.4 spots/10^6 PBMC | 17.7 spots/10^6 PBMC | 0 spots/10^6 PBMC | 3 spots/10^6 PBMC | 7 spots/10^6 PBMC | 12 spots/10^6 PBMC | 8 spots/10^6 PBMC | 0 spots/10^6 PBMC | 0 spots/10^6 PBMC | 5 spots/10^6 PBMC |  |
